Columns and labels:
[1] = tested on: RPMI 1788 leukocytes adhesion to L929 fibroblasts; experiment: Adhesion of human leukocytes RPMI-1788 to confluent L929 fibroblasts; type: cell-based; conditions: for Adhesion, Percent of Control: N=6
[2] = tested on: J774 A1 mouse macrophages adhesion to L929 fibroblasts; experiment: Adhesion of J-774 A1 mouse macrophages to confluent L929 fibroblasts; type: cell-based; conditions: for Adhesion, Percent of Control: N=6
[3] = target: T1, IL-2 high affinity receptor on HUT78 T lymphoma cell membrane (Homo sapiens, UniProt P01589+P14784); experiment: 125I-IL-2 high affinity binding to HuT78 T lymphoma cells; conditions: for 125I-IL-2 binding, Percent of Control: N=6; for reduction of IL-2 high affinity binding: 5 hr
T1 construct: host or cells: HuT78 T lymphoma cells
T1 sequence (P01589 22-272): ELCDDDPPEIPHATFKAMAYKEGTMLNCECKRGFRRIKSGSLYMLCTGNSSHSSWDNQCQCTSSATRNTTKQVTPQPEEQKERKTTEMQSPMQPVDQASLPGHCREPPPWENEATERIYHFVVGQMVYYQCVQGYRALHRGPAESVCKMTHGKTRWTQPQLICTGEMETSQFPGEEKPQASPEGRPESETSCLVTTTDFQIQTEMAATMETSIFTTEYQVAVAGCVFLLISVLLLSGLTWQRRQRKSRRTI
T1 sequence (P14784 27-551): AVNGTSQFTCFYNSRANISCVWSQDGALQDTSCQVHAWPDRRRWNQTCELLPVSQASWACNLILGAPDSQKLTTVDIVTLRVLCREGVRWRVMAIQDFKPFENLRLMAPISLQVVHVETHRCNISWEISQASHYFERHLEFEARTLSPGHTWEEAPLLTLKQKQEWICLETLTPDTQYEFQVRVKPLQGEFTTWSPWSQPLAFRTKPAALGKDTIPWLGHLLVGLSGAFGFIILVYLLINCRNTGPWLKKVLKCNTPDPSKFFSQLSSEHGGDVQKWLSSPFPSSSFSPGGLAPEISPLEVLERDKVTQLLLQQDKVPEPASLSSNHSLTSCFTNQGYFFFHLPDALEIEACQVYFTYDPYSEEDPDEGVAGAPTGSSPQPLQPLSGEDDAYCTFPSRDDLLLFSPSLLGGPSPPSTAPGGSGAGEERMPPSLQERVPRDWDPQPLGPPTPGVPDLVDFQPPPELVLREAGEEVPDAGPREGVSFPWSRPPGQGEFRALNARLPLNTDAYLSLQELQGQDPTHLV

[4] = target: J774-A1 macrophage elastase; experiment: Elastase activity in J774-A1 macrophages; type: biochemical, mouse; conditions: 120 min
[5] = tested on: IL-8 high affinity receptor on chinese hamster ovarian carcinoma K-1 cells; experiment: 125I-IL-8 high affinity binding to chinese hamster ovarian carcinoma K-1 cells; conditions: for 125I-IL-8 binding, Percent of Control: N=6
[6] = tested on: CF1 male mice, LPS Salmonella abortus equi induced death; experiment: Protection against septic shock (LPS induced endotoxic shock); type: in vivo; conditions: for Percent Survival at 52 hr: LPS 10 mg/kg, CF1 male mice, N=6; for protection from LPS induced death: 16 mg/kg
From the text: Few reports in the literature indicate interaction at these receptor sites other than by peptides or antibodies. […] Blocking these receptors is desirable because the entire inflammation cascade of events is triggered by the early release of TNFa and IL-1. […] Radioisotopes were obtained from New England Nuclear [Dupont, Boston, MA] and substrates and co- factors were obtained from Sigma Chemical Co. [St. Louis, MO]. […] Cell lines were obtained from American Type Culture Collection [Rockville, MD]. In Vivo Tests Anti-inflammatory screen in mice: Male CF male mice weighing 28-32g obtained from Jackson Lab. [Bar Harbor, […]] were used to screen agents at 8 or 16 mg/kg intraperitoneal [I.P.] x 2 administered 3 hr and 30 min prior to administering the irritant, according to Winter's protocol. Evaluation of the induced edema was made by injecting 2% carrageenan in 0.9% saline into the plantar region of the foot. The opposite foot injected with 0.9% isotonic saline was used as a base line. […] Salmonella abortus equi [Lot # 69F4003] […] Drugs from 2 to 16 mg/kg, I.P. were administered 2 hr prior and 2 hr post-injection of the LPS and then subsequently for every 24 hr for the length ofthe animals' lives. Deaths were recorded every 12 hr and continued for 96 hr. […] In vitro TNFa andIL-1 Measurements and Cellular Regulation IC-21 mouse macrophages were maintained in RPMI-1640 + 10% FCS + P/S. After the cells had grown to confluency, E. coli LPS at 10 Ixg/ml was added to the medium. Agents were incubated at 12.5 to 100 µM final concentration for 18 hr. The medium (100 btl) was collected for TNFCt determinations. Interleukin-1 [IL-1] release was determined using P388D1 cells which were maintained in RPMI-1640 + 10% FCS + P/S. The L929 bioassay was used to quantitate the TNF and the IL-1 levels. The L929 mouse fibroblasts were grown in DMEM + 10% FCS + P/S to confluency in 96 well plates and incubated with 100 tl ofmedium from […] or P388D cells after 18 hr. The cells were stained with 0.2% crystal violet in 20% MeOH and read at 580 nm using a Molecular Devices scanner (SOFT-max program). High Affinity Binding to Receptors on L929-106 Cells Two laCi of 125I-TNFct (human recombinant, 30 mCi/tg New England Nuclear) or 125I-IL-1 (70-120[.t Ci/lxg,New England Nuclear) was added to confluency L929 cells for 90 min or 5 hr, respectively with 25, 50 and 100 tM of the test compounds 12]. The cells were washed repeatedly with isotonic saline, pH.7.2 and aliquots counted. Prostaglandin cylcooxygenase activity Mouse J774AI macrophages maintained in Dulbecco's modified Eagle's medium + 15% FCS + P/S. Cells (5 x 106) were incubated with agents (5 to 100 ].tM final concentration) and 3H-arachidonic acid (100 Ci/mol) for 60 min at 37C in a CO2 incubator. The reaction was terminated with 2N HCI, the mixture extracted 2 X with ether, and the organic layer evaporated.

COc1c2cc(S(=O)(=O)[O-])cc1Cc1cc(S(=O)(=O)[O-])cc(c1OC)Cc1cc(S(=O)(=O)[O-])cc(c1OC)Cc1cc(S(=O)(=O)[O-])cc(c1OC)Cc1cc(S(=O)(=O)[O-])cc(c1OC)Cc1cc(S(=O)(=O)[O-])cc(c1OC)C2.[Na+].[Na+].[Na+].[Na+].[Na+].[Na+] [Compound 6]
Adhesion, Percent of Control ([1]; 5 μM, 60 min): 46 + 4% of Control | Adhesion, Percent of Control ([1]; 5 μM, 90 min): 62 + 5% of Control | Adhesion, Percent of Control ([1]; 12.5 μM, 2 Hours): 125 + 5% of Control | Adhesion, Percent of Control ([1]; 12.5 μM, 5 Hours): 92 + 4% of Control | Adhesion, Percent of Control ([1]; 12.5 μM, 60 min): 49 + 6% of Control | Adhesion, Percent of Control ([1]; 12.5 μM, 90 min): 55 + 6% of Control | Adhesion, Percent of Control ([1]; 25 μM, 2 Hours): 100 + 6% of Control | Adhesion, Percent of Control ([1]; 25 μM, 5 Hours): 95 + 5% of Control | Adhesion, Percent of Control ([1]; 25 μM, 60 min): 30 + 3% of Control | Adhesion, Percent of Control ([1]; 25 μM, 90 min): 71 + 5% of Control | Adhesion, Percent of Control ([1]; 50 μM, 2 Hours): 108 + 6% of Control | Adhesion, Percent of Control ([1]; 50 μM, 5 Hours): 88+ 7% of Control | Adhesion, Percent of Control ([1]; 50 μM, 60 min): 41 + 5% of Control | reducing the adhesion of human leukocytes ([1]; 5 to 50 μM, at 2 and 5 hr): not effective | reducing significantly the adhesion of human leukocytes ([1]; 5 to 50 μM, at 60 and 90 min): effective | Adhesion, Percent of Control ([2]; 5 μM, 2 Hours): 123 + 6% of Control | Adhesion, Percent of Control ([2]; 5 μM, 5 Hours): 88 + 5% of Control | Adhesion, Percent of Control ([2]; 5 μM, 90 min): 137 + 6% of Control | Adhesion, Percent of Control ([2]; 12.5 μM, 2 Hours): 77 + 6% of Control | Adhesion, Percent of Control ([2]; 12.5 μM, 5 Hours): 109 + 6% of Control | Adhesion, Percent of Control ([2]; 12.5 μM, 90 min): 133 + 5% of Control | Adhesion, Percent of Control ([2]; 25 μM, 2 Hours): 118 + 7% of Control | Adhesion, Percent of Control ([2]; 25 μM, 5 Hours): 131 + 6% of Control | Adhesion, Percent of Control ([2]; 25 μM, 90 min): 128 + 7% of Control | Adhesion, Percent of Control ([2]; 50 μM, 2 Hours): 122 + 6% of Control | Adhesion, Percent of Control ([2]; 50 μM, 5 Hours): 119 + 5% of Control | Adhesion, Percent of Control ([2]; 50 μM, 90 min): 103 + 7% of Control | 125I-IL-2 binding, Percent of Control ([3]; 5 μM, 2 Hours): 142 + 6% of Control | 125I-IL-2 binding, Percent of Control ([3]; 5 μM, 5 Hours): 100 + 6% of Control | 125I-IL-2 binding, Percent of Control ([3]; 12.5 μM, 2 Hours): 115 + 5% of Control | 125I-IL-2 binding, Percent of Control ([3]; 12.5 μM, 5 Hours): 92 + 6% of Control | 125I-IL-2 binding, Percent of Control ([3]; 25 μM, 2 Hours): 85 + 5% of Control | 125I-IL-2 binding, Percent of Control ([3]; 25 μM, 5 Hours): 78 + 5% of Control | 125I-IL-2 binding, Percent of Control ([3]; 50 μM, 2 Hours): 81 + 4% of Control | 125I-IL-2 binding, Percent of Control ([3]; 50 μM, 5 Hours): 55 + 4% of Control | reduction of IL-2 high affinity binding ([3]; 50 μM): 45% | IC50 Elastase J774-A1 [4]: Increased | 125I-IL-8 binding, Percent of Control ([5]; 50 μM, 5 Hours): 54 + 5% of Control | 125I-IL-8 binding, Percent of Control ([5]; 50 μM, 24 Hours): 65 + 7% of Control | 125I-IL-8 binding, Percent of Control ([5]; 100 μM, 24 Hours): 55 + 4% of Control | reduction of IL-8 high affinity binding ([5]; at 5 hr and 24 hr): ~45% | Percent Survival at 52 hr ([6]; 8 mg/Kg I.P.): 50% | Percent Survival at 52 hr ([6]; 16 mg/Kg I.P.): 100% | protection from LPS induced death [6]: 100%

Pentosan sulfate [Pentosan polysulfate, reference compound]
Adhesion, Percent of Control ([1]; 12.5 μM, 2 Hours): 83+5% of Control | Adhesion, Percent of Control ([1]; 12.5 μM, 5 Hours): 82+5% of Control | Adhesion, Percent of Control ([1]; 25 μM, 2 Hours): 116+6% of Control | Adhesion, Percent of Control ([1]; 25 μM, 5 Hours): 82+6% of Control | Adhesion, Percent of Control ([1]; 50 μM, 2 Hours): 147+6% of Control | Adhesion, Percent of Control ([2]; 5 μM, 2 Hours): 75+7% of Control | Adhesion, Percent of Control ([2]; 5 μM, 5 Hours): 103+5% of Control | Adhesion, Percent of Control ([2]; 5 μM, 90 min): 329 + 12% of Control | Adhesion, Percent of Control ([2]; 12.5 μM, 2 Hours): 53 + 6% of Control | Adhesion, Percent of Control ([2]; 12.5 μM, 5 Hours): 108+7% of Control | Adhesion, Percent of Control ([2]; 12.5 μM, 90 min): 363 + 16% of Control | reduction of J774A1 macrophage adhesion ([2]; 12.5 μM, 2 hr): 47% | Adhesion, Percent of Control ([2]; 25 μM, 2 Hours): 66+ 5% of Control | Adhesion, Percent of Control ([2]; 25 μM, 5 Hours): 169+6% of Control | Adhesion, Percent of Control ([2]; 25 μM, 90 min): 260 + 9% of Control | Adhesion, Percent of Control ([2]; 50 μM, 2 Hours): 110+6% of Control | Adhesion, Percent of Control ([2]; 50 μM, 5 Hours): 187 + 7% of Control | Adhesion, Percent of Control ([2]; 50 μM, 90 min): 176 +6% of Control | 125I-IL-2 binding, Percent of Control ([3]; 5 μM, 2 Hours): 362 + 9% of Control | 125I-IL-2 binding, Percent of Control ([3]; 5 μM, 5 Hours): 148 + 5% of Control | 125I-IL-2 binding, Percent of Control ([3]; 12.5 μM, 2 Hours): 188 + 5% of Control | 125I-IL-2 binding, Percent of Control ([3]; 12.5 μM, 5 Hours): 89 + 6% of Control | 125I-IL-2 binding, Percent of Control ([3]; 25 μM, 2 Hours): 123 + 7% of Control | 125I-IL-2 binding, Percent of Control ([3]; 25 μM, 5 Hours): 81 + 6% of Control | 125I-IL-2 binding, Percent of Control ([3]; 50 μM, 2 Hours): 104 + 6% of Control | 125I-IL-2 binding, Percent of Control ([3]; 50 μM, 5 Hours): 55 + 4% of Control | reduction of IL-2 high affinity binding ([3]; 50 μM): 45% | IC50 Elastase J774-A1 [4]: Increased | 125I-IL-8 binding, Percent of Control ([5]; 50 μM, 5 Hours): 79 + 6% of Control | 125I-IL-8 binding, Percent of Control ([5]; 50 μM, 24 Hours): 51 + 6% of Control | reduction of IL-8 high affinity binding ([5]; 50 μM, 5 hr): 21-23% | 125I-IL-8 binding, Percent of Control ([5]; 100 μM, 24 Hours): 47 + 8% of Control | reduction of IL-8 high affinity binding ([5]; 24 hr): greater than 40% | Percent Survival at 52 hr ([6]; 8 mg/Kg I.P.): 67% | Percent Survival at 52 hr ([6]; 16 mg/Kg I.P.): 83% | protection from LPS induced death [6]: 83%

Reference: publication PMC2365101, “Anti-Inflammatory Activity of (Polyphenolic)-Sulfonates and Their Sodium Salts in Rodents” (Metal-Based Drugs, 1998)
